Here are results for nine compounds from patent publication US6436990B1, “6-methoxy-2-naphthylacetic acid prodrugs” (Nobex Corporation, priority 1999, dated 2002).

The subject of series [1] is Rat Paw Edema. Kind of series: Rat Paw Edema. The class given is in vivo. Particulars: for % Inhibition: one dose per compound (Dose column, mg/kg): Nabumetone 79.0, 6-MNA 75.0, Indomethacin 10.0, Example 1 94.3, Example 2 121.0, Example 3 94.9, Example 4 121.0.
For series [2] the following is noted: oral administration; cited from earlier work.

What is called ED50 is the midpoint of the dose-response relation. A higher ED50 goes with a need for a large dose. A word on the % Inhibition: it is the change of the read-out against control, counted positive when it falls. Read a low % Inhibition as a weak effect. By melting point is commonly meant the temperature, or range, at which the solid turns liquid. Consider `COc1ccc2cc(CC(=O)OCC(C)=O)ccc2c1` [Example 1, (6-methoxy-naphthalen-2-yl)-acetic acid 2-oxo-propyl ester], for which the melting point lay in the range of 122 to 124 °C. Further, in series [1], it took a dose of 33.9 mg/kg to reach the 50% effect level (ED50) and the “% Inhibition” value worked out at 65%.
`COc1ccc2cc(CC(=O)OCCOCCO[N+](=O)[O-])ccc2c1` [Example 2, (6-Methoxy-naphthalen-2-yl)-acetic acid 2-(2-nitrooxy-ethoxy)-ethyl ester]: the “% Inhibition” value in series [1] stood at 57%.
For `COc1ccc2cc(CC(=O)OCC(=O)O)ccc2c1` [Example 3, (6-methoxy-naphthalen-2-yl)-acetic acid carboxymethyl ester], the melting point is 190 to 192 °C (dec.). The “% Inhibition” value in series [1] was 58%.
The matching figures for `CCOC(=O)COC(=O)Cc1ccc2cc(OC)ccc2c1` [Example 4, (6-methoxy-naphthalen-2-yl)-acetic acid ethoxycarbonylmethyl ester]: 38 to 40 °C and 38%.
Turning to `COc1ccc2cc(CC(=O)O)ccc2c1` [Example 6-MNA, 6-methoxy-2-naphthylacetic acid], in series [1], the “% Inhibition” value is listed as 45%.
The compound `COCCNC(=O)Cc1ccc2cc(OC)ccc2c1` [Example 8, N-(2-methoxy-ethyl)-2-(6-methoxy-naphthalen-2-yl)-acetamide] yielded a melting point of 129 °C.
Consider `COc1ccc2cc(CC(N)=O)ccc2c1` [Example 10, 2-(6-methoxy-naphthalen-2-yl)-acetamide], for which the melting point was 234 to 236 °C.
Turning to `COc1ccc2c(c1)c(CC(=O)O)c(C)n2C(=O)c1ccc(Cl)cc1` [Indomethacin, reference compound], in series [1], the “% Inhibition” value is on record as 51%.
Regarding `COc1ccc2cc(CCC(C)=O)ccc2c1` [Nabumetone, nabumetone, reference compound], in series [1], the ED50 was 35.9 mg/kg and the “% Inhibition” value is listed as 60%. The “share of orally administered nabumetone transferred in vivo into 6MNA” value in series [2] was “about 35%”.
